# Read-outs that look alike come from different tables or passages of the source.
# Columns and labels:
# human recombinant MAO-B = target: T1, human recombinant MAO-B (Homo sapiens, UniProt P27338); test: fluorometric monoamine oxidase B inhibition assay; assay type: biochemical; conditions: for inhibition at 1 µM: read-out: % inhibition MAO-B (1 µM), mean of two independent experiments; for % inhibition MAO-B (1 µM): mean of two independent experiments
# T1 construct: purchased Sigma Aldrich
# T1 sequence (P27338 1-520): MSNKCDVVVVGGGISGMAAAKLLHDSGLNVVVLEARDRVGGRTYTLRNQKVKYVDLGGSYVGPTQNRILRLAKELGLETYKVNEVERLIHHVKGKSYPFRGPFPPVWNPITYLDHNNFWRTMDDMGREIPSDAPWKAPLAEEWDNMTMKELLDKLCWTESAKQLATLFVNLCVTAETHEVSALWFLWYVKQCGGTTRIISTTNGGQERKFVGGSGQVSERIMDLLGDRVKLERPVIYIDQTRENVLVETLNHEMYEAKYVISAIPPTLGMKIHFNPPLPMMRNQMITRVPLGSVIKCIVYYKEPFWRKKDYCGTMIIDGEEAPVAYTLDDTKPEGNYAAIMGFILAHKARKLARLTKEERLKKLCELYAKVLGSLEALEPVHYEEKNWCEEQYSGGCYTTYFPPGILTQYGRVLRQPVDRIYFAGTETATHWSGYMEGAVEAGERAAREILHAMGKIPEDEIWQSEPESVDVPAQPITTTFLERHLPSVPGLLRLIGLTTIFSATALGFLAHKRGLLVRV
# [1] = test system: maximal electroshock (MES) seizures; test: maximal electroshock seizure (MES) test; assay type: in vivo, mice; conditions: mice i.p.; for responders at 100 mg/kg / ED50: Mus musculus, ip; for ED50: TPE 0.5 h, 95% confidence interval in parentheses
# Text: Epilepsy is a multifaceted disorder with often unclear etiology, making it challenging to pinpoint a specific receptor or transporter as the definitive target. Consequently, the discovery of ASMs deviates from the traditional drug development pathway, which typically involves designing a new molecule, docking it with a specific biological target, and performing chemical synthesis, followed by in vitro assays. Instead, numerous animal seizure models, which mirror various types of human epileptic seizures, are initially employed in the process of new ASM discovery. This approach has been instrumental in the identification and introduction into clinical practice of all currently used ASMs and continues to be a cornerstone in the preclinical development of new anticonvulsants. The primary justification for prioritizing in vivo screening over in vitro binding and functional studies is the complex and often not fully elucidated mechanisms of action of known ASMs. This approach also facilitates the discovery of compounds with novel, previously undefined pharmacodynamic properties. In light of this, we evaluated all compounds obtained in the current studies using the MES test, which remains one of the most valuable preclinical screening models for tonic-clonic seizures, as well as partial convulsions with or without secondary generalization in humans. This test allows for a comprehensive assessment of the anticonvulsant efficacy of new ASM candidates and is considered highly relevant for predicting their therapeutic efficacy in human epilepsy. The MES test was carried out in mice following the intraperitoneal (i.p.) administration of a screening dose of 100 mg/kg in a group consisting of four animals. The efficacy of the compounds synthesized was evaluated at 0.5 h pretreatment time.
# Fresh solutions were prepared daily for each experimentation session.
# Each group consisted of six animals.
# 6 Hz (32 mA) seizures [2] = test: 6 Hz (32 mA) psychomotor seizure model; conditions: for responders at 100 mg/kg / ED50: Mus musculus, ip; for responders at 100 mg/kg / protection (efficacy) in the 6 Hz (32 mA) screening / ED50: 0.5 h; for responders at 100 mg/kg: read-out: protection (efficacy) in the 6 Hz (32 mA) screening; for protection (efficacy) in the 6 Hz (32 mA) screening / 6 Hz (32 mA) test: number of mice protected / number of mice tested: mice i.p.; for protection (efficacy) in the 6 Hz (32 mA) screening: 100 mg/kg, four mice; for ED50: read-out: ED50 6 Hz (32 mA), mice i.p., TPE 0.5 h, 95% confidence interval in parentheses; for 6 Hz (32 mA) test: number of mice protected / number of mice tested: dose of 100 mg/kg, pretreatment time 0.5 h;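 for all read-outs here: adult male albino Swiss CD-1 mice, each used once, with compounds suspended in 1% Tween 80 in water as vehicle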
# [3] = rotarod test (acute neurological toxicity, motor coordination); assay type: in vivo; conditions: male, CD-1 (albino Swiss), mouse, in vivo, ip, mice i.p.
# Description: The protective indexes (PIs) were then calculated as the ratio of TD50 to ED50 (PI = TD50/ED50), providing an assessment of the therapeutic window for each compound.
# [4] = test system: maximal electroshock (MES) seizures; conditions: cited from earlier work
# 6 Hz (44 mA) seizures = conditions: TD50 rotarod / ED50 6 Hz (44 mA); cited from earlier work
# 6 Hz (32 mA) seizures [5] = conditions: cited from earlier work
# [6] = 100 mg/kg, 0.5 h, four mice, read-out: protection (efficacy) in the MES screening
# [7] = dose of 100 mg/kg, pretreatment time 0.5 h, read-out: MES test: number of mice protected / number of mice tested (converted)
# [8] = dose of 100 mg/kg, pretreatment time 0.5 h
Structure (SMILES),inhibition at 1 µM (human recombinant MAO-B) [%],melting point [°C],"responders at 100 mg/kg [1, 6] [%]","responders at 100 mg/kg [1, 7] [%]",responders at 100 mg/kg (6 Hz (32 mA) seizures [2]) [%],further results
"CC(C(=O)NCc1ccc(OCc2ccc(F)cc2)cc1)N1C(=O)CCC1=O (stereo not shown) [Compound 8, 2-(2,5-dioxopyrrolidin-1-yl)-N-(4-((4-fluorobenzyl)oxy)benzyl)propanamide]",,,,,,"% inhibition MAO-B (1 µM) (human recombinant MAO-B): 0%; protection (efficacy) in the 6 Hz (32 mA) screening (6 Hz (32 mA) seizures [2]): 50%; protection (efficacy) in the MES screening ([1]; 100 mg/kg, 0.5 h, four mice): 50%"
"CC(C(=O)NCc1ccc(OCc2cccc(C(F)(F)F)c2)cc1)N1CCCC1=O (stereo not shown) [Compound 38, 2-(2-oxopyrrolidin-1-yl)-N-(4-((3-(trifluoromethyl)benzyl)oxy)benzyl)propanamide]",2,123.5 to 123.8,,100,75,TD50 at 0.5 h [3]: > 300 mg/kg; ED50 (6 Hz (32 mA) seizures [2]): 65.3 mg/kg; ED50 [1]: 54.8 mg/kg
"CC(C)(C(=O)NCc1ccc(OCc2ccccc2)cc1)N1C(=O)CCC1=O [Compound 21, N-(4-(benzyloxy)benzyl)-2-(2,5-dioxopyrrolidin-1-yl)-2-methylpropanamide]",0,170.3 to 171.2,≤ 25,25,,
"CC(C(=O)NCc1ccc(OCc2cccc(OC(F)(F)F)c2)cc1)N1C(=O)CCC1=O (stereo not shown) [Compound 16, 2-(2,5-dioxopyrrolidin-1-yl)-N-(4-((3-(trifluoromethoxy)benzyl)oxy)benzyl)propanamide]",31,112.2 to 112.9,100,100,50,TD50 at 0.5 h [3]: > 300 mg/kg; ED50 (6 Hz (32 mA) seizures [2]): 63 mg/kg; ED50 [1]: 40.5 mg/kg
"Cc1ccccc1COc1ccc(CNC(=O)C(C)N2C(=O)CCC2=O)cc1 (stereo not shown) [Compound 18, 2-(2,5-dioxopyrrolidin-1-yl)-N-(4-((2-methylbenzyl)oxy)benzyl)propanamide]",0,126.1 to 126.8,75,75,75,TD50 at 0.5 h [3]: > 300 mg/kg; ED50 (6 Hz (32 mA) seizures [2]): 57.7 mg/kg; ED50 [1]: 89.2 mg/kg
"CCCC(CCC)C(=O)O [VPA, valproic acid]",,,,,,"PI (TD50/ED50) MES ([4]; TD50 rotarod / ED50 MES): 1.7; PI (TD50/ED50) 6 Hz (44 mA) (6 Hz (44 mA) seizures): 2.3; PI (TD50/ED50) 6 Hz (6 Hz (32 mA) seizures [5]; TD50 rotarod / ED50 6 Hz (32 mA)): 3.3; ED50 6 Hz (32 mA) (6 Hz (32 mA) seizures [5]; mice i.p., TPE 0.5 h (LEV 1.0 h)): 130.6 (117.6–145.2) mg/kg"
"CC(C(=O)NCc1ccc(OCc2ccc(Cl)cc2)cc1)N1C(=O)CCC1=O (stereo not shown) [Compound 11, N-(4-((4-chlorobenzyl)oxy)benzyl)-2-(2,5-dioxopyrrolidin-1-yl)propanamide]",,,,,,"% inhibition MAO-B (1 µM) (human recombinant MAO-B): 0%; protection (efficacy) in the 6 Hz (32 mA) screening (6 Hz (32 mA) seizures [2]): 25%; 6 Hz (32 mA) test: number of mice protected / number of mice tested (6 Hz (32 mA) seizures [2]): 1/4; protection (efficacy) in the MES screening ([1]; 100 mg/kg, 0.5 h, four mice): ≤ 25%; MES test: number of mice protected / number of mice tested [1, 8]: 0/4"
"CC(C(=O)NCc1ccc(OCc2ccc(C(F)(F)F)cc2)cc1)N1C(=O)CCC1=O (stereo not shown) [Compound 14, 2-(2,5-dioxopyrrolidin-1-yl)-N-(4-((4-(trifluoromethyl)benzyl)oxy)benzyl)propanamide]",0,,50,50,50,
"CC(C(=O)NCc1ccc(OCc2ccccc2F)cc1)N1C(=O)CCC1=O (stereo not shown) [Compound 6, 2-(2,5-dioxopyrrolidin-1-yl)-N-(4-((2-fluorobenzyl)oxy)benzyl)propanamide]",,,,,,"% inhibition MAO-B (1 µM) (human recombinant MAO-B): 0%; protection (efficacy) in the 6 Hz (32 mA) screening (6 Hz (32 mA) seizures [2]): 100%; 6 Hz (32 mA) test: number of mice protected / number of mice tested (6 Hz (32 mA) seizures [2]): 4/4; protection (efficacy) in the MES screening ([1]; 100 mg/kg, 0.5 h, four mice): 100%; MES test: number of mice protected / number of mice tested [1, 8]: 4/4"
"CC(C(=O)NCc1ccc(OCc2ccccc2C(F)(F)F)cc1)N1C(=O)CCC1=O (stereo not shown) [Compound 12, 2-(2,5-dioxopyrrolidin-1-yl)-N-(4-((2-(trifluoromethyl)benzyl)oxy)benzyl)propanamide]",0,122.9 to 123.4,100,100,75,TD50 at 0.5 h [3]: > 300 mg/kg; ED50 (6 Hz (32 mA) seizures [2]): 52.7 mg/kg; ED50 [1]: 46.2 mg/kg
"C[C@H](NCc1ccc(OCc2cccc(F)c2)cc1)C(N)=O [SAF, safinamide]",,,,,,ED50 in the MES model ([4]; mice): 4.1 mg/kg
"CC(C(=O)NCc1ccc(OCc2ccccc2C(F)(F)F)cc1)N1CCCC1=O (stereo not shown) [Compound 37, 2-(2-oxopyrrolidin-1-yl)-N-(4-((2-(trifluoromethyl)benzyl)oxy)benzyl)propanamide]",0,121.8 to 122.5,,100,50,
"CC(C(=O)NCc1ccc(OCc2cccc(C(F)(F)F)c2)cc1)N1C(=O)CCC1=O (stereo not shown) [Compound 13, 2-(2,5-dioxopyrrolidin-1-yl)-N-(4-((3-(trifluoromethyl)benzyl)oxy)benzyl)propanamide]",0,,100,100,100,TD50 at 0.5 h [3]: > 300 mg/kg; ED50 (6 Hz (32 mA) seizures [2]): 67.9 mg/kg; ED50 [1]: 69.7 mg/kg

# The next lines start with results.
inhibition at 1 µM (human recombinant MAO-B) [%],melting point [°C],Structure (SMILES),"responders at 100 mg/kg [1, 6] [%]","responders at 100 mg/kg [1, 7] [%]",responders at 100 mg/kg (6 Hz (32 mA) seizures [2]) [%],further results
0,,"Cc1ccc(COc2ccc(CNC(=O)C(C)N3C(=O)CCC3=O)cc2)cc1 (stereo not shown) [Compound 20, 2-(2,5-dioxopyrrolidin-1-yl)-N-(4-((4-methylbenzyl)oxy)benzyl)propanamide]",≤ 25,0,,
0,,"Cc1cccc(COc2ccc(CNC(=O)C(C)N3C(=O)CCC3=O)cc2)c1 (stereo not shown) [Compound 19, 2-(2,5-dioxopyrrolidin-1-yl)-N-(4-((3-methylbenzyl)oxy)benzyl)propanamide]",≤ 25,25,25,
0,105.3 to 106.1,"CC(C(=O)NCc1cccc(OCc2ccccc2)c1)N1C(=O)CCC1=O (stereo not shown) [Compound 22, N-(3-(benzyloxy)benzyl)-2-(2,5-dioxopyrrolidin-1-yl)propanamide]",≤ 25,25,,
0,,"CC(C(=O)NCc1ccccc1OCc1ccccc1)N1C(=O)CCC1=O (stereo not shown) [Compound 23, N-(2-(benzyloxy)benzyl)-2-(2,5-dioxopyrrolidin-1-yl)propanamide]",≤ 25,25,,
0,110.5 to 111.2,"CC(C(=O)NCc1ccc(OCc2ccccc2OC(F)(F)F)cc1)N1C(=O)CCC1=O (stereo not shown) [Compound 15, 2-(2,5-dioxopyrrolidin-1-yl)-N-(4-((2-(trifluoromethoxy)benzyl)oxy)benzyl)propanamide]",50,50,25,
0,110.5 to 110.9,"CC(C(=O)NCc1ccc(OCc2ccccc2)cc1)N1CCCC1=O (stereo not shown) [Compound 36, N-(4-(benzyloxy)benzyl)-2-(2-oxopyrrolidin-1-yl)propanamide]",,100,25,

# Reference: publication PMC11432405, “Development of Novel Alaninamide Derivatives with Anticonvulsant Activity and Favorable Safety Profiles in Animal Models” (International Journal of Molecular Sciences, 2024)
